Results taken from patent publication US10654890B2, “Cyclic peptide derivative, method for preparing same and composition thereof” (priority 2014, dated 2020).
Where a name gives a salt, the structure may show the parent alone.

Experiments:
[1] = tested on: senescence-accelerated model mouse SAMP8; experiment: Step through passive avoidance test; format: in vivo
Source text: As a mouse for an in vivo test of the cyclic peptide derivative, senescence-accelerated model mouse SAMP8 which is used as a cognitive disorder model animal of initial Alzheimer's disease accompanied with aging was selected, and as a control, SAMR1 mouse with normal aging was selected.
19-Week old male mice of SAMR1 and SAMP8 were purchased from Japan SLC, Inc., and divided into 5 groups, i.e., mouse group with normal aging (SAMR1), senescence-accelerated model mouse group (SAMP8), {P8+donepezil hydrochloride 1250 μg/kg/day} group as a positive control, and {P8+cyclic peptide derivative 2.5 μg/kg/day} group and {P8+cyclic peptide derivative 25 μg/kg/day} group as a test group. The animal was individually kept, i.e., one animal per cage, in a room with controlled environment {room temperature: 23±2° C., light and dark cycle: lighting time of 12 hours (time with light: 07:00 to 19:00), time without light: 12 hours}. The test was carried out in a time window of from 13:00 to 18:00 in an incubator with constant temperature and constant humidity (temperature 23±2° C., humidity 50±10%). After 10 days of an acclimation period, all mice were provided with standard meal (MEQ, Oriental Yeast Company) and body weight of the animal was recorded everyday during the entire test period. […]
(3) {P8+donepezil hydrochloride 1250 μg/kg/day} group: As a positive control, donepezil hydrochloride (Sanyo Chemical Laboratories CO., LTD.) was dissolved in MQ and prepared to have a concentration of 1250 μg/kg (bodyweight), and then orally administered to a SAMP8 for 5 weeks by using a gastric sonde. The concentration was accurately calculated based on the bodyweight which has been measured every day. […]
(4) {P8+cyclic peptide derivative 2.5 μg/kg/day} group: As a test group, the cyclic peptide derivative was dissolved in MQ and prepared to have a concentration of 2.5 μg/kg (bodyweight), and then orally administered to a SAMP8 for 5 weeks by using a gastric sonde. The concentration was accurately calculated based on the bodyweight which has been measured every day. […]

[2] = tested on: senescence-accelerated model mouse SAMP8; experiment: Coefficient of friction measurement test of body hair; format: in vivo
Source text: Considering that the anti-aging effect for body hair and hair has been analyzed until now by using a senescence-accelerated model mouse (SAMP8) (Non Patent Literature 40), the inventors of the present invention also conducted an analysis regarding the anti-aging effect for body hair and hair for a senescence-accelerated model mouse administered with the cyclic peptide derivative by using a static and dynamic friction tester and a scanning probe microscope (SPM).
Coefficient of friction of animal hair and body hair is closely related to the state of cuticle as a scale-like tissue present on a surface of hair and body hair, and it is considered that the value of coefficient of friction (COF) increases as damages on cuticle of a hair and body hair increases (Non Patent Literature 40). It is also known that, when the damages on cuticle are high, moisture or nutrients of hair and body hair are lost from the damaged part of cuticle.
As for the apparatus, a handy rub tester TL701 (manufactured by Trinity-Lab Inc.), which is a static and dynamic friction tester, was used. […] Namely, the apparatus even allows measurement of friction on a surface of skin or materials which have a complex curved surface.
The contact member of a static and dynamic friction tester was closely pressed on body hair on forehead part of a mouse, and while applying a load of about 1 N, the member was moved, through an area between two ears, from the forehead to neck part of the mouse for about ten seconds, and the coefficient of friction (COF) was measured. The coefficient of friction (COF) was measured 5 to 10 times per mouse, and an average value thereof was calculated.

SMILES | contextual learning ability (latency in post-shock trial) ([1]; SAMP8, oral 2.5 μg/kg/day) | contextual learning ability (latency in post-shock trial) ([1]; SAMP8, oral 25 μg/kg/day) | coefficient of friction (COF) of body hair ([2]; SAMP8, oral 2.5 μg/kg/day) | coefficient of friction (COF) of body hair ([2]; SAMP8, oral 25 μg/kg/day) | latency in post-shock trial ([1]; SAMP8, oral 1250 μg/kg/day, compared to SAMP8 not administered with anything, p<0.05) | coefficient of friction (COF) of body hair ([2]; SAMP8, oral donepezil hydrochloride 1250 μg/kg/day)
CCC1(C)Oc2cc(ccc2O)C(O)C(NC)C(=O)NC(C(C)C)C(=O)NC1C(=O)NC(CCC(=O)O)C(=O)O (stereo not drawn) [cyclic peptide derivative] | recovered to the level of a mouse with normal aging | recovered to the level of a mouse with normal aging | lowered to the same level as those of a mouse with normal aging | lowered to the same level as those of a mouse with normal aging |  | 
COc1cc2c(cc1OC)C(=O)C(CC1CCN(Cc3ccccc3)CC1)C2 (stereo not drawn) [donepezil hydrochloride, reference compound] |  |  |  |  | short latency in significant sense | the same level as that of the senescence-accelerated model mouse
